Assay results taken from patent publication US5055459A, “Selective elimination of malignant cells from bone marrow by bis (acyloxy) propylphosphoramidates” (Board of Regents, The University of Texas, priority 1989, dated 1991).
pIC50: −log10 of the molar value. Converted amounts (≈) assume the structure as drawn. Where two headings read alike, the source gives them in different places.

Tests used:
[1] = system: L1210 lymphatic leukemia cells; assay: cells; format: cell-based, murine
L1210 leukemia cells [2] = assay: cells; format: cell-based, murine; settings: Mus musculus
L1210 leukemia cells [3] = assay: Growth inhibition of L1210 leukemia cells in vitro by nucleoside analogues (Table 7); format: cell-based, murine; settings: Mus musculus, growth inhibition by 50%, exposure 96 h, then 72 h drug-free culture
Method: The effectiveness against growth of L1210 cells of 1 these nucleoside analogs was tested and the growth inhibition shown in Table 7.
^a Exponentially growing cells were exposed to varying drug
concentrations for 96 h at 37° C. The cells were then centrifuged,
resuspended, and cultured in drugfree medium for 72 h.
^b The drug concentration that inhibited cell growth by 50% compared
to untreated control cultures.

[4] = system: cyclophosphamide-resistant L1210 and P-388 cell-lines; settings: cited from earlier work
KBM-3/DOX = assay: cells; format: cell-based, human; settings: human, kbm-3/dox cells
[5] = system: GM-CFC from normal human bone marrow
KBM-3/AMSA = assay: cells; format: cell-based, human; settings: human, kbm-3/amsa cells

## CC(=O)OC(CCOP(=O)(NCCCl)NCCCl)OC(C)=O [Compound 22-F, 0-(3,3-Diacetatopropyl)-N-(2-chloroethyl)-N-(2chloroethyl)phosphorodiamide]
[1]
  toxicity to L1210 cells, comparison in words: much more potent than ASTA Z 7557
[1]; Mus musculus, L1210, 72 h, read-out: ED50
  IC50: 1.7 µg/mL (≈ 4.48 µM)

## COc1cccc2c1C(=O)c1c(O)c3c(c(O)c1C2=O)C[C@@](O)(C(=O)CO)C[C@@H]3O[C@H]1C[C@H](NP(=O)(NCCCl)OCCC(OC(C)=O)OC(C)=O)[C@H](O)[C@H](C)O1 (stereo partly drawn) [Compound C-3]
L1210 leukemia cells [2]
  pIC50: 7.68

## COc1cccc2c1C(=O)c1c(O)c3c(c(O)c1C2=O)C[C@@](O)(C(C)=O)C[C@@H]3O[C@H]1C[C@H](NP(=O)(NCCCl)OCCC(OC(C)=O)OC(C)=O)[C@H](O)[C@H](C)O1 (stereo partly drawn) [Compound C-4]
L1210 leukemia cells [2]
  pIC50: 7.60

## COc1cccc2c1C(=O)c1c(O)c3c(c(O)c1C2=O)C[C@@](O)(C(=O)CO)C[C@@H]3O[C@H]1C[C@H](NP(=O)(NCCCl)OCCC(OC(=O)C(C)(C)C)OC(=O)C(C)(C)C)[C@H](O)[C@H](C)O1 (stereo partly drawn) [Compound C-7]
L1210 leukemia cells [2]
  pIC50: 7.46

## COc1cccc2c1C(=O)c1c(O)c3c(c(O)c1C2=O)C[C@@](O)(C(C)=O)C[C@@H]3O[C@H]1C[C@H](NP(=O)(NCCCl)OCCC(OC(=O)C(C)(C)C)OC(=O)C(C)(C)C)[C@H](O)[C@H](C)O1 (stereo partly drawn) [Compound C-8]
L1210 leukemia cells [2]
  pIC50: 7.52

## CC(=O)OC(CCOP(N)(=O)OC[C@@H]1CC[C@H](n2ccc(=O)[nH]c2=O)O1)OC(C)=O (stereo partly drawn) [Compound D-1]
L1210 leukemia cells [3]
  pIC50: 5.85

## CC(C)(C)C(=O)OC(CCOP(N)(=O)OC[C@@H]1CC[C@H](n2ccc(=O)[nH]c2=O)O1)OC(=O)C(C)(C)C (stereo partly drawn) [Compound D-2]
L1210 leukemia cells [3]
  pIC50: 6.15

## CC(=O)OC(CCOP(N)(=O)OC[C@@H]1CC[C@H](n2cc(C)c(=O)[nH]c2=O)O1)OC(C)=O (stereo partly drawn) [Compound D-3]
L1210 leukemia cells [3]
  pIC50: 5.89

## Cc1cn([C@H]2CC[C@@H](COP(N)(=O)OCCC(OC(=O)C(C)(C)C)OC(=O)C(C)(C)C)O2)c(=O)[nH]c1=O (stereo partly drawn) [Compound D-4]
L1210 leukemia cells [3]
  pIC50: 5.80

## N#CN [cyanamide]
[4]
  effect on cytotoxicity of 4-hydroperoxycyclophosphamide and ASTA Z 7557: potentiate the cytotoxicity

## CCN(CC)C(=S)S [diethyl dithiocarbamate]
[4]; cyclophosphamide-resistant L1210 and P-388
  effect on cytotoxicity of 4-hydroperoxycyclophosphamide and ASTA Z 7557: potentiate the cytotoxicity

## CCN(CC)C(=S)SSC(=S)N(CC)CC [disulfiram]
[4]
  effect on cytotoxicity of 4-hydroperoxycyclophosphamide and ASTA Z 7557: potentiate the cytotoxicity
  sensitization of resistant L1210 cell-line: rendered drug-sensitive

## COc1cccc2c1C(=O)c1c(O)c3c(c(O)c1C2=O)C[C@@](O)(C(=O)CO)C[C@@H]3O[C@H]1C[C@H](N)[C@H](O)[C@H](C)O1 [doxorubicin, reference compound]
KBM-3/DOX
  resistance of subline to doxorubicin: 100 fold

## CCOP(=O)(CCC=O)c1ccccc1 (stereo not drawn) [ethylphenyl(2-formylethyl) phosphinate]
[4]
  effect on cytotoxicity of 4-hydroperoxycyclophosphamide and ASTA Z 7557: potentiate the cytotoxicity

## COc1cc(NS(C)(=O)=O)ccc1Nc1c2ccccc2nc2ccccc12 [m-AMSA, 4'-(9-acridinylamino)-3-methanesulfon-m-amisidide, reference compound]
[5]
  GM-CFC recovery kinetics / progenitor sparing, in words: nonselective killing of mature (GM-CFC) and primitive (pluripotent) myeloid progenitor cells
KBM-3/AMSA
  resistance of subline to m-AMSA: 130 fold
